ChEMBL document CHEMBL3301361, “Experimental in vitro DMPK and physicochemical data on a set of publicly disclosed compounds”

Test: physchem
Details: octan-1-ol/water

SMILES	logD (pH 7.4, LogD7.4)	logD (pH 7.4)
NC(=O)N1c2ccccc2C[C@H](O)c2ccccc21 [ESLICARBAZEPINE]	0.79	–
Oc1ccc(-c2csc(-c3ccc(O)cc3)n2)cc1	3.7	–
O=C(Cc1cccc2ccccc12)Nc1ccccc1	–	3.9
COC(Cn1c(=O)[nH]c2c(=O)n(CC(=O)NC(C(=O)C(F)(F)F)C(C)C)c(-c3ccccc3)cc2c1=O)OC (centres undefined)	1.56	–
O=C(Nc1ccccn1)c1ccccc1	2.2	–
CCN(CC)C(=O)c1ccc(C(=C2CCNCC2)c2ccc(Cl)c(Cl)c2)cc1	–	2.4
CCCc1c(OCc2cccc(NC(=O)c3ccccc3C(=O)O)c2)ccc(C(C)=O)c1O	1.9	–
CC(CC(=O)NCc1ccccc1)C1CCCO1 (centres undefined)	–	2.1
Fc1cccc(C(COCc2cc(C(F)(F)F)cc(C(F)(F)F)c2)N2CCNCC2)c1 (centres undefined)	3.2	–
O=c1oc2ccc(O)cc2cc1-c1ccccc1	3.12	–
CC(C)C(NC(=O)Cn1c(-c2ccc(F)cc2)ncc(NC(=O)OCc2ccccc2)c1=O)C(=O)C(F)(F)F (centres undefined)	2.47	–
CC(C)C(NC(=O)Cn1c(-c2cccnc2)ncc(NC(=O)OCc2ccccc2)c1=O)C(=O)C(F)(F)F (centres undefined)	2.15	–
COc1ncc(-c2ccc3nccc(-c4ccnnc4)c3c2)cc1NS(=O)(=O)c1ccc(F)cc1F [OMIPALISIB]	2.5	–
CN(C)CC(O)COc1ccc(Nc2cc(N(CC#N)c3cc(Cl)ccc3Cl)ncn2)cc1 (centres undefined)	2.1	–
CC(C)C(NC(=O)Cn1c(-c2ccc(F)cc2)ncc(N)c1=O)C(=O)C(F)(F)F (centres undefined)	1.05	–
C=CCCCCCCCCC(=O)N[C@H]1CCC(=O)NC1=O	2.64	–
NCc1nc2ccccc2[nH]1	0.4	–
CCC(c1nc2snc(C)c2c(=O)n1Cc1ccccc1)N(CCCN)C(=O)c1ccc(C)cc1 (centres undefined)	1.61	–
Cn1cc(S(C)(=O)=O)nc1-c1c2c(=O)n(C)c(=O)n(CC3CC3)c2nn1Cc1ccnc2ccc(Cl)cc12	2.64	–
Clc1cccc2[nH]ncc12	2.5	–
CSc1ncccc1C(=O)NCc1ccc(C)cc1	2.71	–
O=C(NS(=O)(=O)c1cccc(C(F)(F)F)c1)N1CCC(N2CCC(Oc3ccc(Cl)c(Cl)c3)CC2)CC1	2.94	–
CS(=O)(=O)c1ccccc1C(=O)NC[C@@H](O)CN1CCC(Oc2ccc(Cl)c(Cl)c2)CC1	2.34	–
NC(=O)c1cccc(S[C@H]2C[C@H]3CC[C@@H](C2)N3Cc2ccccc2)c1	–	2.22

SMILES	logD (pH 7.4, LogD7.4)	logD (pH 7.4)
CCC(c1nc2ncccc2c(=O)n1Cc1ccccc1)N(CCCN)C(=O)c1ccc(C)cc1 (centres undefined)	-0.04	–
COc1ccc(-c2coc3cc(O)cc(O)c3c2=O)cc1OC	2.8	–
COc1ccc(C(C)NC(=O)C2(N)CCN(c3ncnc4[nH]ccc34)CC2)cc1OC (centres undefined)	1.8	–
Fc1ccc(-n2cc(C3CCNCC3)c3cc(Cl)ccc32)cc1	2.4	–
COCCNCc1cncc(-c2ccc(F)cc2OC)n1	1.61	–
COc1ccc(S(=O)(=O)NCC(c2ccccc2)N2CCCCCC2)cc1 (centres undefined)	3.13	–
CCN(CC)S(=O)(=O)c1ccc(NC(=O)[C@@](C)(O)C(F)(F)F)c(Cl)c1	3.66	–
Cc1cn([C@H]2CCCN(S(=O)(=O)c3ccc(O)c(Oc4cccc(C(F)(F)F)c4)c3)C2)c(=O)[nH]c1=O	2.27	–
CC(=O)Nc1ccccc1C	1	–
CN1Cc2ccccc2C(c2ccc(Cl)cc2)C1 (centres undefined)	–	3.64
Oc1ccc(-c2ccc3cc(O)ccc3c2)cc1	4	–
CNC(=O)c1ccc(Nc2nccc(-c3cnc(C4CC4)n3C(C)C)n2)cc1	–	2.77
c1ccc(CC2NCCc3ccccc32)cc1 (centres undefined)	1.89	–
CCN1CCC[C@@H](CN2CCN(C(=O)Nc3ccc(Cl)c(Cl)c3)CC2)C1	1.94	–
CCNC(=O)OC[C@@H](C)N(c1cc(Cl)ccc1CO)S(=O)(=O)c1ccc(Cl)cc1	3.4	–
CN(C)CCOC(C)(c1ccccc1)c1ccccn1 (centres undefined) [DOXYLAMINE]	-0.2	–
Cc1noc(C)c1CCC1CCN(S(=O)(=O)CC2(N(O)C=O)CCOCC2)CC1	0.9	–
CN(C(=O)Cc1ccc(C#N)cc1)C1CCN(CCC(c2ccccc2)c2ccccc2)CC1	3.7	–
Cc1cn([C@H]2CCCN(Cc3ccc(C(=O)O)c(Oc4cccc(F)c4)c3)C2)c(=O)[nH]c1=O	-1.03	–
O=C(NCc1ccco1)c1ccc2[nH]c(COc3ccc(C45CC6CC(CC(C6)C4)C5)cc3)nc2c1	4	–
CC(C)CC(c1ccccn1)n1[nH]c(=O)c2nc3cc(Cl)ccc3c(O)c2c1=O (centres undefined)	1.83	–
Cc1ccc(CO)cc1N(C)c1ccnc(Nc2cc(N3CCCCC3)cc(N3CCOCC3)c2)n1	4.2	–
CCC(c1nc2ccsc2c(=O)n1Cc1ccccc1)N(CCCN)C(=O)c1ccc(C)nc1 (centres undefined)	2.56	–
CS(=O)(=O)c1ccccc1C(=O)NCC(O)CNC1CCN(Cc2ccc(Cl)c(Cl)c2)CC1 (centres undefined)	1.21	–

SMILES	logD (pH 7.4, LogD7.4)	logD (pH 7.4)
O=c1oc2ccc(O)cc2cc1-c1ccc(O)cc1	2.9	–
CCN(CC)C(=O)c1ccc([C@H](c2cccc(NC(=O)C3CC3)c2)N2CCN(Cc3ccc(F)cc3)CC2)cc1	–	3.99
O=C(COCc1ccncc1)N1CCC(c2ccc(Cl)cc2Cl)CC1	2.63	–
CC(C)C(NC(=O)Cn1c(-c2ccccc2)ccc(NC(=O)CN2CCOCC2)c1=O)C(=O)C(F)(F)F (centres undefined)	2	–
O=c1oc2ccccc2cc1-c1ccc(O)cc1	3	–
Clc1ccc([C@H]2CC=CCNC2)cc1Cl	–	1.95
CC(C)C(NC(=O)Cn1c(-c2ccccc2)ncc(NC(=O)OCc2ccccc2)c1=O)C(=O)C(F)(F)F (centres undefined)	2.12	–
O=c1[nH]n(C(c2ccccn2)C2CC2)c(=O)c2c(O)c3ccc(Cl)cc3nc12 (centres undefined)	1	–
CNC1=Nc2ncccc2C(c2ncco2)=NC1c1cccs1 (centres undefined)	–	1.14
COc1cc(/C=C2/SC(=O)NC2=O)cc(OC)c1O	0.74	–
Cn1nc(C(C)(C)C)cc1NC(=O)Nc1ccc(Cl)cc1	3.97	–
CC(=O)N[C@@H]1CC2(CCN(Cc3ccc4[nH]c5ccccc5c4c3)CC2)c2ccccc21	2.96	–
CCOc1ccccc1-c1ccc2c(c1)C(=O)C(=O)c1ccccc1-2	2.67	–
COc1cccc(Nc2nc(NCC3CCCO3)c3ccccc3n2)c1 (centres undefined)	3.9	–
COC(=O)Nc1cnc(-c2ccc(F)cc2)n(CC(=O)NC(C(=O)C(F)(F)F)C(C)C)c1=O (centres undefined)	1.82	–
CCOC(=O)c1c(C)n(Cc2ccco2)c2ccc(O)cc12	–	3.5
N=C(N)SCc1ccc(Cl)c(Cl)c1	1.28	–
NS(=O)(=O)c1cccc(Nc2nccc(Nc3c(Cl)ccc4c3OCO4)n2)c1	2.97	–
Cn1c(=O)c2c(ncn2CC(O)CO)n(C)c1=O (centres undefined) [DYPHYLLINE]	-1.25	–
N#Cc1ccc2cccc(O)c2n1	1.81	–
O=C(O)CCCc1ccc(N(CCCl)CCCl)cc1 [CHLORAMBUCIL]	–	1.47
CCOC(=O)C1(c2cccc(O)c2)CCCN(CC2CC2)C1 (centres undefined)	–	1.89
CCN(CC)S(=O)(=O)c1ccc(NC(=O)C(C)(O)C(F)(F)F)cc1 (centres undefined)	2.63	–
NC1CCc2cc(OC(=O)c3ccccc3)c(OC(=O)c3ccccc3)cc2C1 (centres undefined)	2.6	–

SMILES	logD (pH 7.4, LogD7.4)	logD (pH 7.4)
CC(C)C(NC(=O)Cn1c(-c2ccccc2)ccc(NC(=O)NCc2ccccn2)c1=O)C(=O)C(F)(F)F (centres undefined)	2.15	–
COc1cc(-c2nnc(S)n2-c2cccc(C(F)(F)F)c2)cc(OC)c1OC	2.27	–
CN(C)S(=O)(=O)c1ccc2c(C(=O)NC[C@@H](O)CN3CCC(Oc4ccc(Cl)c(Cl)c4)CC3)c[nH]c(=O)c2c1	3.13	–
Nc1nc2ccc(Cl)cc2c2nc(-c3ccco3)nn12 [CGS-15943]	–	3.98
COc1cc2ncnc(N3CC[C@@H](Oc4cnc5ccccc5n4)C3)c2cc1OC	4.04	–
Cc1nnsc1C(=O)Nc1ccccc1	0.97	–
O=C(CC1CCN(Cc2ccn(-c3ccc(C(F)(F)F)cc3)c2)CC1)NC(c1ccc(F)cc1)c1ccc(=O)[nH]c1 (centres undefined)	3.04	–
Nc1nc(CCc2cccc(Br)c2)cc(=O)[nH]1	2.52	–
CNC(=O)c1ccc(Nc2nccc(-c3cnc(C)n3C(C)C)n2)cc1	2.69	–
COc1cc2ncc(C(N)=O)c(Nc3ccc(C)cc3F)c2cc1OC	3.34	–
Cc1ccc(Cl)c(Nc2ccccc2C(=O)O)c1Cl [MECLOFENAMIC ACID]	2.33	–
COC(=O)N1CCN(c2ccnc(-n3ccnc3)n2)C(CC(=O)NCc2ccc3c(c2)OCO3)C1 (centres undefined)	1.88	–
N#Cc1cc(O)cc2nc(-c3ccc(O)cc3)oc12	3.6	–
CN(C)C(=O)c1ccc(CN2CCc3cc4nc(N)sc4cc3CC2)cc1	1.72	–
O=C(c1ccc(CCC(COc2ccc(-c3cccc([N+](=O)[O-])c3)cc2)N2C(=O)CCCC2=O)cc1)N1CCCC1 (centres undefined)	2.31	–
COC(=O)[C@H](Cc1ccc([N+](=O)[O-])cc1)NC(=O)c1cccc2ccccc12	3.58	–
COc1cnc(-c2ccccn2)nc1Oc1ccc(F)cc1F	3.1	–
Cn1c(CN2CCN(c3cccc(Cl)c3)CC2)nc2ccccc21	3.75	–
O=C1O[C@]2(CN3CCC2CC3)CN1c1cccs1	–	0.9
CC(=O)Nc1ccc2c(c1)c(-c1cc(NC3CC3)n3ncc(C#N)c3n1)cn2C	2.94	–
O=C(NCC1CCCCCC1)c1cc(-c2cccnc2N2CCC(C(=O)O)CC2)ccc1Cl	2.53	–
COc1ccc2nc3ccccc3c(N)c2c1	1	–
